Experimental data taken from PMC4917279 (Journal of Medicinal Chemistry, 2016).

How the values were obtained:
Test in all cases: KINOMEscan
Assay type in all cases: binding
MARK1 = target: T1, MARK1 (Homo sapiens, UniProt Q9P0L2); conditions: read-out: %Ctrl @ 1000 nM
T1 construct: purchased DiscoveRx KINOMEscan

LIMK2 = target: T2, LIMK2 (Homo sapiens, UniProt P53671); conditions: read-out: %Ctrl @ 1000 nM
T2 construct: purchased DiscoveRx KINOMEscan

MAP4K4 = target: T3, MAP4K4 (Homo sapiens, UniProt O95819); conditions: read-out: %Ctrl @ 1000 nM
T3 construct: purchased DiscoveRx KINOMEscan

CHEK2 = target: T4, CHEK2 (Homo sapiens, UniProt O96017); conditions: read-out: %Ctrl @ 1000 nM
T4 construct: purchased DiscoveRx KINOMEscan
T4 sequence (O96017 whole entry): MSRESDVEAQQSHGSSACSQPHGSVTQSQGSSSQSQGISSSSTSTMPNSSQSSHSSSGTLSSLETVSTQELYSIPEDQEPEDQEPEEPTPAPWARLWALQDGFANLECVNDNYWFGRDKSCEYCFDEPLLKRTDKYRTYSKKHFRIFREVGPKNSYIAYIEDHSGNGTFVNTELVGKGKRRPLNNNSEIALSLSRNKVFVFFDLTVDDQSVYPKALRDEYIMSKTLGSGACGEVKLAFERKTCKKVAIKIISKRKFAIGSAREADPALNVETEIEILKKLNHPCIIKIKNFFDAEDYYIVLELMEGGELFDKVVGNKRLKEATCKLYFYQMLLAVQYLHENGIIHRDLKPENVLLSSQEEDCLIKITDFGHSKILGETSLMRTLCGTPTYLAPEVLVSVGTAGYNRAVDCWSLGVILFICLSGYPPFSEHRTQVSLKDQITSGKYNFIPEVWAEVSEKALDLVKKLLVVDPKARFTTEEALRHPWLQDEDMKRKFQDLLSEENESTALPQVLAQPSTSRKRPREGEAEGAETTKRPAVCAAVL

TAOK1 = target: T5, TAOK1 (Homo sapiens, UniProt Q7L7X3); conditions: read-out: %Ctrl @ 1000 nM
T5 construct: purchased DiscoveRx KINOMEscan

CSNK1E = target: T6, CSNK1E (Homo sapiens, UniProt P49674); conditions: read-out: %Ctrl @ 1000 nM
T6 construct: purchased DiscoveRx KINOMEscan

ITK = target: T7, ITK (Homo sapiens, UniProt Q08881); conditions: read-out: %Ctrl @ 1000 nM
T7 construct: purchased DiscoveRx KINOMEscan

CDK3 = target: T8, CDK3 (Homo sapiens, UniProt Q00526); conditions: read-out: %Ctrl @ 1000 nM
T8 construct: purchased DiscoveRx KINOMEscan
T8 sequence (Q00526 whole entry): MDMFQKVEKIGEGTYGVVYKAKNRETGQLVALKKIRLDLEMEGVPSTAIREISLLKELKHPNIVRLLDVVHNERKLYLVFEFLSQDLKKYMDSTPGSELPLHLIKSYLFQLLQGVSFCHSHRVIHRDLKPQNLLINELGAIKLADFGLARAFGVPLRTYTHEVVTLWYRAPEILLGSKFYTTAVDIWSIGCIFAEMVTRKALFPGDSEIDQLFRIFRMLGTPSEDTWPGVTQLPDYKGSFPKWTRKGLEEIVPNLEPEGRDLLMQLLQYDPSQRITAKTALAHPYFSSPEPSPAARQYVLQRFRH

HPK1 = target: T9, HPK1 (Homo sapiens, UniProt Q92918); conditions: read-out: %Ctrl @ 1000 nM
T9 construct: purchased DiscoveRx KINOMEscan

AMPK-alpha2 = target: T10, AMPK-alpha2 (Homo sapiens, UniProt P54646); conditions: read-out: %Ctrl @ 1000 nM
T10 construct: purchased DiscoveRx KINOMEscan

RAF1 = target: T11, RAF1 (Homo sapiens, UniProt P04049); conditions: read-out: %Ctrl @ 1000 nM
T11 construct: purchased DiscoveRx KINOMEscan

CDK7 = target: T12, CDK7 (Homo sapiens, UniProt P50613); conditions: read-out: %Ctrl @ 1000 nM
T12 construct: purchased DiscoveRx KINOMEscan
T12 sequence (P50613 whole entry): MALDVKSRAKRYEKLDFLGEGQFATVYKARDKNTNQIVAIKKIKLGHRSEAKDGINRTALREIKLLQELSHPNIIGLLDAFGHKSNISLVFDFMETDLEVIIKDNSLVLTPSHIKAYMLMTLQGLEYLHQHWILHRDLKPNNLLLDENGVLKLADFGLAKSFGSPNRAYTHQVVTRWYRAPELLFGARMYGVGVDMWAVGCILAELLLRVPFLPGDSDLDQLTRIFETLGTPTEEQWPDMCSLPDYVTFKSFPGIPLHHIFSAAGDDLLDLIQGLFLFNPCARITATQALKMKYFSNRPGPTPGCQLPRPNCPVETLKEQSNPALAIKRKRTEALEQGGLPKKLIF

ACVR2A = target: T13, ACVR2A (Homo sapiens, UniProt P27037); conditions: read-out: %Ctrl @ 1000 nM
T13 construct: purchased DiscoveRx

FLT3(D835Y) = target: T14, FLT3(D835Y) (Homo sapiens, UniProt P36888, D835Y); conditions: read-out: %Ctrl @ 1000 nM
T14 construct: purchased DiscoveRx KINOMEscan

EGFR(S752-I759del) = target: T15, EGFR(S752-I759del) (Homo sapiens, UniProt P00533, DEL752-759); conditions: read-out: %Ctrl @ 1000 nM
T15 construct: purchased DiscoveRx KINOMEscan

YANK2 = target: T16, YANK2 (Homo sapiens, UniProt Q9NY57); conditions: read-out: %Ctrl @ 1000 nM
T16 construct: purchased DiscoveRx KINOMEscan

QSK = target: T17, QSK (Homo sapiens, UniProt Q9Y2K2); conditions: read-out: %Ctrl @ 1000 nM
T17 construct: purchased DiscoveRx KINOMEscan

PHKG2 = target: T18, PHKG2 (Homo sapiens, UniProt P15735); conditions: read-out: %Ctrl @ 1000 nM
T18 construct: purchased DiscoveRx KINOMEscan

MST4 = target: T19, MST4 (Homo sapiens, UniProt Q9P289); conditions: read-out: %Ctrl @ 1000 nM
T19 construct: purchased DiscoveRx KINOMEscan

PRKD2 = target: T20, PRKD2 (Homo sapiens, UniProt Q9BZL6); conditions: read-out: %Ctrl @ 1000 nM
T20 construct: purchased DiscoveRx KINOMEscan

IKK-beta = target: T21, IKK-beta (Homo sapiens, UniProt O14920); conditions: read-out: %Ctrl @ 1000 nM
T21 construct: purchased DiscoveRx KINOMEscan

FRK = target: T22, FRK (Homo sapiens, UniProt P42685); conditions: read-out: %Ctrl @ 1000 nM
T22 construct: purchased DiscoveRx KINOMEscan

PLK4 = target: T23, PLK4 (Homo sapiens, UniProt O00444); conditions: read-out: %Ctrl @ 1000 nM
T23 construct: purchased DiscoveRx KINOMEscan

DCAMKL1 = target: T24, DCAMKL1 (Homo sapiens, UniProt O15075); conditions: read-out: %Ctrl @ 1000 nM
T24 construct: purchased DiscoveRx KINOMEscan
T24 sequence (O15075 whole entry): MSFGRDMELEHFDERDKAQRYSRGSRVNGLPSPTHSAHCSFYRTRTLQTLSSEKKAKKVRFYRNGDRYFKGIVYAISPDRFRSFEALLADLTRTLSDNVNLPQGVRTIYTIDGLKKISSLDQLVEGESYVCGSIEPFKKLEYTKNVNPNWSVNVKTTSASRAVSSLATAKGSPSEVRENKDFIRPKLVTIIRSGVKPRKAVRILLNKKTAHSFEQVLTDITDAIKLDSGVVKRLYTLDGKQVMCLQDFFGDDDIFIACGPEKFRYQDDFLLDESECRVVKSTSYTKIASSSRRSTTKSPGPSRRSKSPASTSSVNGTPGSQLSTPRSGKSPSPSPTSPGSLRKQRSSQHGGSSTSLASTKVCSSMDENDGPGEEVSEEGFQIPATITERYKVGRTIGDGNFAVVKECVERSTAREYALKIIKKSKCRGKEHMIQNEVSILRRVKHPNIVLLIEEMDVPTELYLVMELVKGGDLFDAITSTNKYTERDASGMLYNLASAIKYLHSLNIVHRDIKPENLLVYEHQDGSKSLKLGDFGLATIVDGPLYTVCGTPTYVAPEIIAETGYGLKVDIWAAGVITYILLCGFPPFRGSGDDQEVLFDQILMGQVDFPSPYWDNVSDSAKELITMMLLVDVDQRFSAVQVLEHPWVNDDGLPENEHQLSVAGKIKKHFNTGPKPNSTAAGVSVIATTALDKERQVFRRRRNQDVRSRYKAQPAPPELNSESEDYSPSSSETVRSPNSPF

AURKA = target: T25, AURKA (Homo sapiens, UniProt O14965); conditions: read-out: %Ctrl @ 1000 nM
T25 construct: purchased DiscoveRx KINOMEscan
T25 sequence (O14965 whole entry): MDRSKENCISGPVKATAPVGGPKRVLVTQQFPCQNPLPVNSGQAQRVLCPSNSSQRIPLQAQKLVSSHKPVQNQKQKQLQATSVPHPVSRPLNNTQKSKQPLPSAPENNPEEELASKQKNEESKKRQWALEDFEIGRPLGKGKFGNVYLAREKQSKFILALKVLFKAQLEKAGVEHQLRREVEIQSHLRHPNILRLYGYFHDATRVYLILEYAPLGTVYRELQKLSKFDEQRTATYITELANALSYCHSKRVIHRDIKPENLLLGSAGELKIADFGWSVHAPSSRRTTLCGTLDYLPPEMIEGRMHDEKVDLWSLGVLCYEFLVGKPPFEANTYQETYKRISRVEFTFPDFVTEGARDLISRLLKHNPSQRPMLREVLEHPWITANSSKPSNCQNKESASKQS

CLK1 = target: T26, CLK1 (Homo sapiens, UniProt P49759); conditions: read-out: %Ctrl @ 1000 nM
T26 construct: purchased DiscoveRx KINOMEscan

PRKX = target: T27, PRKX (Homo sapiens, UniProt P51817); conditions: read-out: %Ctrl @ 1000 nM
T27 construct: purchased DiscoveRx KINOMEscan

[1] = target: T28, RSK4(Kin.Dom.1-N-terminal) (Homo sapiens, UniProt Q9UK32); conditions: read-out: %Ctrl @ 1000 nM
T28 construct: RSK4(Kin.Dom.1-N-terminal); purchased DiscoveRx KINOMEscan

INSR = target: T29, INSR (Homo sapiens, UniProt P06213); conditions: read-out: %Ctrl @ 1000 nM
T29 construct: purchased DiscoveRx KINOMEscan

ABL2 = target: T30, ABL2 (Homo sapiens, UniProt P42684); conditions: read-out: %Ctrl @ 1000 nM
T30 construct: purchased DiscoveRx

IRAK1 = target: T31, IRAK1 (Homo sapiens, UniProt P51617); conditions: read-out: %Ctrl @ 1000 nM
T31 construct: purchased DiscoveRx KINOMEscan

ASK2 = target: T32, ASK2 (Homo sapiens, UniProt O95382); conditions: read-out: %Ctrl @ 1000 nM
T32 construct: purchased DiscoveRx KINOMEscan

CAMK2B = target: T33, CAMK2B (Homo sapiens, UniProt Q13554); conditions: read-out: %Ctrl @ 1000 nM
T33 construct: purchased DiscoveRx KINOMEscan

ALK = target: T34, ALK (Homo sapiens, UniProt Q9UM73); conditions: read-out: %Ctrl @ 1000 nM
T34 construct: purchased DiscoveRx KINOMEscan

CLK3 = target: T35, CLK3 (Homo sapiens, UniProt P49761); conditions: read-out: %Ctrl @ 1000 nM
T35 construct: purchased DiscoveRx KINOMEscan

PIK3CB = target: T36, PIK3CB (Homo sapiens, UniProt P42338); conditions: read-out: %Ctrl @ 1000 nM
T36 construct: purchased DiscoveRx KINOMEscan

CDKL5 = target: T37, CDKL5 (Homo sapiens, UniProt O76039); conditions: read-out: %Ctrl @ 1000 nM
T37 construct: purchased DiscoveRx KINOMEscan

FLT3 = target: T38, FLT3 (Homo sapiens, UniProt P36888); conditions: read-out: %Ctrl @ 1000 nM
T38 construct: purchased DiscoveRx KINOMEscan

FLT3(ITD) = test system: FLT3(ITD)
PRKG1 = target: T39, PRKG1 (Homo sapiens, UniProt Q13976); conditions: read-out: %Ctrl @ 1000 nM
T39 construct: purchased DiscoveRx KINOMEscan

[2] = target: T40, ABL1(T315I)-nonphosphorylated (Homo sapiens, UniProt P00519, T315I); conditions: read-out: %Ctrl @ 1000 nM
T40 construct: purchased DiscoveRx (KINOMEscan service)

FES = target: T41, FES (Homo sapiens, UniProt P07332); conditions: read-out: %Ctrl @ 1000 nM
T41 construct: purchased DiscoveRx KINOMEscan
T41 sequence (P07332 whole entry): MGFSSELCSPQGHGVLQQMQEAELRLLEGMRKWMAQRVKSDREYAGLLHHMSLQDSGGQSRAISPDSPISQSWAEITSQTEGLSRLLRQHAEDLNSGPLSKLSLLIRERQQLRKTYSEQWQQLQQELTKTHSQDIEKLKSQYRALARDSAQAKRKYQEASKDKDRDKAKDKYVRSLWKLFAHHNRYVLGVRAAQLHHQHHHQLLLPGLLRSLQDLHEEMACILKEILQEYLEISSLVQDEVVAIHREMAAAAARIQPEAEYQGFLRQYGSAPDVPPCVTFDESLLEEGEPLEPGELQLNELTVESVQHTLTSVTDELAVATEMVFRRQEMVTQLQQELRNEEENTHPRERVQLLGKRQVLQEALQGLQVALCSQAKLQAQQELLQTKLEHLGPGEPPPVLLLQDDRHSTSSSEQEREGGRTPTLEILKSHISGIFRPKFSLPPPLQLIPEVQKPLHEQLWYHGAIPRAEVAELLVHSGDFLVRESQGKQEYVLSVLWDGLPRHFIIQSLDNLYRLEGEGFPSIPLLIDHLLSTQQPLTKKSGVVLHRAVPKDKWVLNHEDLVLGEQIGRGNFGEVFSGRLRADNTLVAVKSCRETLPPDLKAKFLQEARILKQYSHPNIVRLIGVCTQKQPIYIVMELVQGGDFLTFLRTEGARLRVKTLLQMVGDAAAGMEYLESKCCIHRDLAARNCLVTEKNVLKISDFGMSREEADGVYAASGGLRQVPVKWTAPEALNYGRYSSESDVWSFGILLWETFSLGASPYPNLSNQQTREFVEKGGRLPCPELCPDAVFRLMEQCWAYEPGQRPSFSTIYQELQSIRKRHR

PKN1 = target: T42, PKN1 (Homo sapiens, UniProt Q16512); conditions: read-out: %Ctrl @ 1000 nM
T42 construct: purchased DiscoveRx KINOMEscan
T42 sequence (Q16512 whole entry): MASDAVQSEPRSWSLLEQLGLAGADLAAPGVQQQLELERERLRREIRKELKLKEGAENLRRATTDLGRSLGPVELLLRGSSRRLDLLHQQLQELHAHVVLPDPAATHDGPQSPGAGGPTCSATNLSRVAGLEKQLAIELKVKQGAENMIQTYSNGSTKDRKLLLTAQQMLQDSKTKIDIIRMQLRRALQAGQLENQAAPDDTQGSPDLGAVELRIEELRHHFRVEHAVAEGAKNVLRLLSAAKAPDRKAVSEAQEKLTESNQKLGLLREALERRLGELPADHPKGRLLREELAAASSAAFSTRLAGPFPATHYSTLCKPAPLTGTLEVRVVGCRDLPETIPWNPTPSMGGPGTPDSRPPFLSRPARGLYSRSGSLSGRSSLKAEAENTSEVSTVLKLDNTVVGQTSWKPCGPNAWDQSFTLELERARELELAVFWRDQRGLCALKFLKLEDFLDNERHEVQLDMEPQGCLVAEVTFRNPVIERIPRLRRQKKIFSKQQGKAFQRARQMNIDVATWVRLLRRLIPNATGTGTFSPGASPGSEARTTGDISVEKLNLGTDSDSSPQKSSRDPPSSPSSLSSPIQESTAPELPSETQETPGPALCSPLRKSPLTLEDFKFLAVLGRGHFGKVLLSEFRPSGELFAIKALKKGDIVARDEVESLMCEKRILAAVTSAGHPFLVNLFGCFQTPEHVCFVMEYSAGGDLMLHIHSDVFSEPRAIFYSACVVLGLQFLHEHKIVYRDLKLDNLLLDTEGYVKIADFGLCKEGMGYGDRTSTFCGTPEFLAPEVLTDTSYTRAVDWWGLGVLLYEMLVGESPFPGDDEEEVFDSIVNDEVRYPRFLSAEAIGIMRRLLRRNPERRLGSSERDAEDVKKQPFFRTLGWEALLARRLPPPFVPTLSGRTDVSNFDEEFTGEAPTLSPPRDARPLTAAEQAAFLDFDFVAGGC

MARK2 = target: T43, MARK2 (Homo sapiens, UniProt Q7KZI7); conditions: read-out: %Ctrl @ 1000 nM
T43 construct: purchased DiscoveRx KINOMEscan

T2 sequence (P53671 whole entry): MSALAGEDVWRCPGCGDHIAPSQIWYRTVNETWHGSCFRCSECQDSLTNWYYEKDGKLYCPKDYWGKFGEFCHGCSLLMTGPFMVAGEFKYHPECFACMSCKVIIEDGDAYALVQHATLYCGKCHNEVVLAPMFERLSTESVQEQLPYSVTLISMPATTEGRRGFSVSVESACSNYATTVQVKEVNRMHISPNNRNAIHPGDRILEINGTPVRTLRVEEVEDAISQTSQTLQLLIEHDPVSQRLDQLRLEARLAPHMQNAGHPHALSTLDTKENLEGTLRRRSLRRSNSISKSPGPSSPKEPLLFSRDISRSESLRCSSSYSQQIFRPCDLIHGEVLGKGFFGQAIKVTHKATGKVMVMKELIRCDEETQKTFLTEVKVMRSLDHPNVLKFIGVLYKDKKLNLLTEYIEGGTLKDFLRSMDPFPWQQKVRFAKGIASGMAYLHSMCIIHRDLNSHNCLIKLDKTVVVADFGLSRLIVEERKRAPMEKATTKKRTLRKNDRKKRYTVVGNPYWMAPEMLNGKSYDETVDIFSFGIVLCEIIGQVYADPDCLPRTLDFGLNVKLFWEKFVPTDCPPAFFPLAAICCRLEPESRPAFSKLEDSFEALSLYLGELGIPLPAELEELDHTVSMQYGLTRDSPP

CCN(C(=O)CO)[C@H]1CN(/C(=N\C#N)Nc2cccc(OC(F)F)c2)N=C1c1ccc(Cl)c(Cl)c1 [(S)-4] showed a remaining binding at 1 µM (MARK1) of 71%, a remaining binding at 1 µM (LIMK2) of 62% and a remaining binding at 1 µM (MAP4K4) of 100%. For the same compound, the remaining binding at 1 µM (CHEK2) was 99%, the remaining binding at 1 µM (TAOK1) was 89% and the remaining binding at 1 µM (CSNK1E) was 86%. The remaining binding at 1 µM (ITK) was 94%, the remaining binding at 1 µM (CDK3) was 91% and the remaining binding at 1 µM (HPK1) was 88%. For the same compound, the remaining binding at 1 µM (AMPK-alpha2) was 85%, the remaining binding at 1 µM (RAF1) was 100% and the remaining binding at 1 µM (CDK7) was 98%. The remaining binding at 1 µM (ACVR2A) was 100%, the remaining binding at 1 µM (FLT3(D835Y)) was 78% and the remaining binding at 1 µM (EGFR(S752-I759del)) was 100%. For the same compound, the remaining binding at 1 µM (YANK2) was 98%, the remaining binding at 1 µM (QSK) was 94% and the remaining binding at 1 µM (PHKG2) was 99%. It also gave a remaining binding at 1 µM (MST4) of 81%, a remaining binding at 1 µM (PRKD2) of 100% and a remaining binding at 1 µM (IKK-beta) of 100%. The remaining binding at 1 µM (FRK) was 77%, the remaining binding at 1 µM (PLK4) was 56% and the remaining binding at 1 µM (DCAMKL1) was 67%. The remaining binding at 1 µM (AURKA) was 96%, the remaining binding at 1 µM (CLK1) was 78% and the remaining binding at 1 µM (PRKX) was 100%. For the same compound, the remaining binding at 1 µM [1] was 92%, the remaining binding at 1 µM (INSR) was 78% and the remaining binding at 1 µM (ABL2) was 88%. For the same compound, the remaining binding at 1 µM (IRAK1) was 92%, the remaining binding at 1 µM (ASK2) was 93% and the remaining binding at 1 µM (CAMK2B) was 100%. The remaining binding at 1 µM (ALK) was 93%, the remaining binding at 1 µM (CLK3) was 94% and the remaining binding at 1 µM (PIK3CB) was 100%. The remaining binding at 1 µM (CDKL5) was 100%, the remaining binding at 1 µM (FLT3) was 92% and the “%Ctrl @ 1000 nM” value (FLT3(ITD)) was 91%. The remaining binding at 1 µM (PRKG1) was 100%, the remaining binding at 1 µM [2] was 77% and the remaining binding at 1 µM (FES) was 92%. The remaining binding at 1 µM (PKN1) was 61% and the remaining binding at 1 µM (MARK2) was 99%.
